Measured values as given in PubChem BioAssay AID367 (MTDP, 2006).
“And” between values parts separate entries of the source, which are not always exact repeats. Identical values can stand only once. The source made the active and inactive calls. The rule behind the calls is not given here.

The compounds below were run against Gag-Pol polyprotein (Human immunodeficiency virus type 2 subtype A (isolate ROD)) (UniProt P04584) (assay: Reverse transcriptase ribonuclease H inhibitors, biochemical concentration-response (AID 367)). Conditions: HIV-2 RNase H, FRET RNA/DNA substrate cleavage.
Sequence of Gag-Pol polyprotein (Human immunodeficiency virus type 2 subtype A (isolate ROD)) (P04584 whole entry, looked up): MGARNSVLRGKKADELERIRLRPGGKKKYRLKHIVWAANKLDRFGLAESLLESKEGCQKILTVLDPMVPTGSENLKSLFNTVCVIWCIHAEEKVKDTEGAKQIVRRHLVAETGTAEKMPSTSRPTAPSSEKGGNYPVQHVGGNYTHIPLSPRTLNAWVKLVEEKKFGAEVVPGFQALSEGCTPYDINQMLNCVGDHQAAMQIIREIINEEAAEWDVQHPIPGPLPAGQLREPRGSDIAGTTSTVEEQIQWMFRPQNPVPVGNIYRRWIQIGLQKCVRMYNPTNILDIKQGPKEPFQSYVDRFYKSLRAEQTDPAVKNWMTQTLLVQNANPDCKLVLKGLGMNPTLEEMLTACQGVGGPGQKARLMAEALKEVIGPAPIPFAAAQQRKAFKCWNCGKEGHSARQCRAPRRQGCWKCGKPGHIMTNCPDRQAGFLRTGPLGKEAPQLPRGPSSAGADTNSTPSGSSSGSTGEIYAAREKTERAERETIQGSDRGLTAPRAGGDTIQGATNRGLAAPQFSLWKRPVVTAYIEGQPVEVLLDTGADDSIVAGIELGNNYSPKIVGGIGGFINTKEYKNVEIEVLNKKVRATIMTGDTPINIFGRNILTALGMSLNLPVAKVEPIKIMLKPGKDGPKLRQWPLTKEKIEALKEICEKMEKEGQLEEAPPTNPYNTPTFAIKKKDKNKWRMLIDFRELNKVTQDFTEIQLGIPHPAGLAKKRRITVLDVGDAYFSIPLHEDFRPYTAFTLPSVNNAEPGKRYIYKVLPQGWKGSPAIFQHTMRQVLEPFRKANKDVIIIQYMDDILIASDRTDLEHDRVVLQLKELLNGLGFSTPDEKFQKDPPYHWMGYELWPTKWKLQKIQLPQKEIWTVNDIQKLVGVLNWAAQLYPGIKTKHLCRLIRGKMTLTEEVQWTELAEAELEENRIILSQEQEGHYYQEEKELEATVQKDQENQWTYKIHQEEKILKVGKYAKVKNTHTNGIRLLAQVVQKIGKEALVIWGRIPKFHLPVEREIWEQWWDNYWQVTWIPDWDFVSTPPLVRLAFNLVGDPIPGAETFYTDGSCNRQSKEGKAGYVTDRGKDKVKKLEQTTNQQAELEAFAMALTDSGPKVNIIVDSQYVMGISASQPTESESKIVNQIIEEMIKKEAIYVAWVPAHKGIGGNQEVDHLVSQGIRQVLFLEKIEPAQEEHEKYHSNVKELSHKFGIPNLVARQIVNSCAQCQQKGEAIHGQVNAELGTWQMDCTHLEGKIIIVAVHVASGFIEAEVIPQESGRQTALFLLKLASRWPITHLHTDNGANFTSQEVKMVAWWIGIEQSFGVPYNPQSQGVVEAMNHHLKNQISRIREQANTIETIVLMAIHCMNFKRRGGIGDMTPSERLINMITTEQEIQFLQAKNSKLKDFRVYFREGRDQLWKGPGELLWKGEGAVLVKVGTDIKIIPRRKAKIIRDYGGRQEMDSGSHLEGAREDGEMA

Row | SMILES | IC50
1 | O=S(=O)(Nc1cccc(C(F)(F)F)c1)c1ccc2ccccc2c1 | inactive
2 | O=C(N/N=C/c1ccc(/C=N/NC(=O)c2ccc(O)c(O)c2)cc1)c1ccc(O)c(O)c1 | 3.8 µM
3 | O=C(Nc1ccc(N2CCN(C(=O)c3ccccc3)CC2)cc1)c1ccc(-c2ccccc2)cc1 | 2.6 µM
4 | C[C@@H]1[C@H](O)c2c(c3c(c4c(-c5ccccc5)cc(=O)oc24)OC(C)(C)C=C3)O[C@@H]1C | inactive
5 | COc1ccc(C(=O)NC(=S)Nc2ccc3nn(-c4ccc(C)c(Cl)c4)nc3c2)cc1[N+](=O)[O-] | 4.3 µM
6 | CC1=C(C)CC(C(=O)Nc2ccc(N3C(=O)c4ccccc4C3=O)cc2)C(C(=O)O)C1 (stereo not given) | > 100 µM (inactive)
7 | O=c1[nH]c2[nH]c(=S)[nH]c(=S)c2[nH]1 | 4 µM
8 | O=C1C(Cl)=C/C(=N\S(=O)(=O)c2ccc(Cl)cc2)C(Cl)=C1Cl | 1 µM
9 | COc1ccc(-c2nc3sc(-c4ccc(OC)cc4)nc3s2)cc1 | 2.9 µM
10 | O=C1NC(=S)S/C1=C/c1cccc(OCc2ccc(Cl)c(Cl)c2)c1 | 7.3 µM
11 | CC(C)c1ccc(O)c(O)c(=O)c1 | 1 µM
12 | CC(C)c1cccc(O)c(=O)c1 | > 100 µM (inactive)
13 | Cc1sc(NC(=O)c2ccco2)c(C(N)=O)c1C | 5 µM
14 | CCOc1cccc(N2C(=O)/C(=C/c3cn(CC(=O)OC)c4ccccc34)C(=O)NC2=S)c1 | 2.8 µM
15 | O=S(=O)(O)c1cc(N=[N+]([O-])c2cc(S(=O)(=O)O)c3ccccc3c2)cc2ccccc12 | inactive
16 | O=C1C(Cl)=C/C(=N\S(=O)(=O)c2ccccc2)C(Cl)=C1Cl | 0.9 µM
17 | Cc1ccc(-c2cc(C(=O)Nc3sc(C(=O)OC(C)C)c(C)c3C(N)=O)c3ccccc3n2)s1 | 1.1 µM
18 | Nc1c(S(=O)(=O)O)cc(Nc2cccc(S(N)(=O)=O)c2)c2c1C(=O)c1ccccc1C2=O | 4 µM
19 | O=C1C(Cl)=C(NC(=O)c2ccccc2)C(=O)C(Cl)=C1NC(=O)c1ccccc1 | 1.1 µM
20 | O=[N+]([O-])c1c(Cl)cccc1-c1c[nH]cc1Cl | > 100 µM (inactive)
21 | Cc1ccc(C(=O)NC(=S)Nc2ccc(-c3nc4ccccc4s3)cc2)cc1[N+](=O)[O-] | inactive
22 | O=C1NC(=S)N(c2ccc(Cl)cc2)C(=O)/C1=C/c1ccco1 | inactive
23 | Cc1ccc(C2COc3cc(O)c(O)cc3C2)cc1 (stereo not given) | 0.6 µM
24 | O=C1C=CC(=O)C(c2cc(Cl)ccc2Cl)=C1 | 0.1 µM
25 | CC(C)c1ccc(O)c(=O)cc1 | inactive

Row | SMILES | IC50
26 | COC([CH2][Hg][n]1cnc2c1c(=O)n(C)c(=O)n2C)CN1C(=O)c2ccccc2S1(=O)=O (stereo not given) | 0.9 µM
27 | COc1c(OC)c(O)c2c(=O)cc(-c3ccc(O)c(O)c3)oc2c1OC | 3 µM
28 | CN(C)CN1CSC(=S)N(CN(C)C)C1 | 2.8 µM
29 | c1ccc(C(c2cccc3c2ccc2ccccc23)C(c2ccccc2)c2cccc3c2ccc2ccccc23)cc1 (stereo not given) | inactive
30 | O=C1NC(=S)N(c2ccc(Cl)cc2)C(=O)/C1=C\C=C\c1ccccc1[N+](=O)[O-] | 8 µM
31 | Cc1onc(-c2ccccc2)c1C(=O)Nc1sc(C)c(C)c1C(N)=O | inactive
32 | COc1ccc(N2C(=O)/C(=C/c3ccc(I)o3)C(=O)NC2=S)cc1 | 1.3 µM
33 | NC(=O)c1c(N)sc2c1CCCCC2 | 2.5 µM
34 | Cc1cc(C(=O)O)ccc1-n1c(C)ccc1C | inactive
35 | O=C(Nc1sc2c(c1C(=O)Nc1cccc3ccccc13)CCCCC2)c1ccccc1F | inactive
36 | NC(=O)c1c(NC(=O)COc2ccccc2)sc2c1CCCCC2 | 8 µM
37 | C=Cc1c(C)c2cc3[nH]c(cc4nc(cc5nc(cc1[nH]2)C(C)=C5CCC(=O)O)C(CCC(=O)O)=C4C)c(C)c3C=C | 1.7 µM
38 | O=C1/C(=C\c2ccc(O)c(O)c2)SC(=S)N1c1cccc(Cl)c1 | 6.6 µM
39 | COc1ccc(NC(=O)c2c(N)sc(-c3ccccc3)c2C)cc1 | 9 µM
40 | COC(=O)c1c(N)sc(C(=O)Nc2ccc(OC)cc2)c1C | 4.3 µM
41 | O=C1c2ccccc2C(=O)c2c(O)c(O)cc(O)c21 | 5 µM
42 | CN(C)S(=O)(=O)c1ccc(Nc2ccc(O)c3c2C(=O)c2c([N+](=O)[O-])ccc(O)c2C3=O)cc1 | 8 µM
43 | Cc1ccc(C(=O)Nc2sc(C)c(C)c2C(N)=O)cc1 | 0.8 µM
44 | COc1ccc(C2COc3cc(O)c(O)cc3C2)cc1 (stereo not given) | 0.5 µM
45 | Cc1sc(NC(=O)Cc2ccccc2)c(C(N)=O)c1C | 9 µM
46 | C[C@]12Cc3cnc(-c4ccccc4)nc3C[C@@H]1CC[C@@H]1[C@@H]2CC[C@@]2(C)[C@H]1CC[C@]2(C)O | inactive
47 | Cc1cccc(NCC(=O)N/N=C\c2c(Br)cc(Br)c(O)c2Br)c1 | inactive
48 | CC(=O)O[C@H](C)[C@@H]1C2=C(C(=O)C[C@]1(C)O)C(=O)c1c(ccc(-c3ccc4c(c3O)C(=O)C3=C(C4=O)[C@@H]([C@@H](C)OC(C)=O)[C@@](C)(O)CC3=O)c1O)C2=O | inactive
49 | CC(C)=Cc1cc(CCC/C(C)=C/Cc2c(O)cc(C)c(C(=O)O)c2O)co1 | 5.7 µM
50 | COc1cc(-c2[o+]c3cc(O)cc(O)c3cc2O)cc(O)c1O | 4.1 µM and 3.1 µM

Row | SMILES | IC50
51 | O=C1Nc2ccc(I)cc2C1(O)N1CCOCC1 (stereo not given) | 6.3 µM
52 | O=C1/C(=C/c2ccc(O)c(O)c2)SC(=S)N1C1CCCCC1 | 9.1 µM
53 | Cc1cc(-c2ccc(C=C3C(=O)NC(=S)NC3=O)o2)c([N+](=O)[O-])cc1C | 7 µM
54 | Nc1nc(Sc2ccc([N+](=O)[O-])c3nonc23)c2[nH]cnc2n1 | inactive
55 | Oc1ccc2ccccc2c1C=NCc1c(O)ccc2ccccc12 | inactive
56 | CCOc1ccc(N2C(=O)/C(=C/c3ccc(I)o3)C(=O)NC2=S)cc1 | 2 µM
57 | CN1CC(O)C2=CC(=O)C(=O)C=C21 (stereo not given) | 4 µM
58 | Nc1ccc(N=Nc2ccc(-c3ccc(O)cc3)cc2)c2ccc(S(=O)(=O)O)cc12 | 6.3 µM
59 | O=c1c(O)cccc2cc(O)c(O)c(O)c12 | 1.3 µM
60 | Cc1sc(NC(=O)C2CC3CCC2C3)c(C(N)=O)c1C (stereo not given) | inactive
61 | Cc1cc(I)c2c(c1)C1C=CCC1C(C(=O)O)N2 (stereo not given) | > 100 µM (inactive)
62 | O=C1NC(=O)/C(=C/c2ccc(-c3ccc(O)c(C(=O)O)c3)o2)S1 | 1 µM
63 | CC(C)=CCc1ccc(O)c(=O)cc1C(C)C | > 100 µM (inactive)
64 | O=C1NC(=S)N(c2ccccc2F)C(=O)/C1=C/c1ccc(I)o1 | 4.9 µM
65 | O=C(NC(=S)Nc1cc(-c2nc3ccccc3s2)ccc1Cl)c1ccc(F)cc1 | 9.1 µM
66 | CCc1c(O)c2c(c(O)c1C(C)=O)C(=O)c1c(cc(O)c(C(=O)O)c1C(=O)O)C2=O | 3.5 µM
67 | CCOC(=O)Oc1c(OC)cc(C(=O)O[C@@H]2C[C@@H]3CN4CCc5c([nH]c6cc(OC)ccc56)[C@H]4C[C@@H]3[C@H](C(=O)OC)[C@H]2OC)cc1OC | > 100 µM (inactive)
68 | C=C1C(=O)O[C@@H]2/C=C(\C)CC/C=C(\C(=O)O)CC/C=C(\C)CC[C@H]12 | 5.5 µM
69 | Cc1ccc(N2C(=O)/C(=C/c3ccc(O)c(O)c3)SC2=S)cc1C | 4 µM
70 | Cc1ccc(-c2c(C#N)c(SCC(=O)c3ccc(O)c(O)c3)nc3c2CCCC3)o1 | 1.5 µM
71 | Nc1cc(S(N)(=O)=O)ccc1SSc1ccc(S(N)(=O)=O)cc1N | 2.5 µM
72 | Cc1cc(O)c2c(c1O)C(=O)C13C(=C2O)C(=O)C2C(O)C1C1C(O)C3C(=O)C3=C(O)c4c(O)cc(C)c(O)c4C(=O)C321 (stereo not given) | 8.2 µM
73 | Oc1ccc(/C=N/Nc2nncc(-c3ccccc3)n2)c(O)c1O | 1.1 µM
74 | CC1=NN(c2ccc(S(N)(=O)=O)cc2)C(=O)/C1=C/c1ccc(-c2ccc(Cl)cc2Cl)o1 | 3.6 µM
75 | Cc1ccc(-c2n[nH]c(=S)n2/N=C/c2ccc(O)c(O)c2O)cc1 | 3.8 µM

Row | SMILES | IC50
76 | Ic1ccc2c(c1)N(c1ccccc1)c1cc(N=c3ccc4nc5ccc(I)cc5n(-c5ccccc5)c-4c3)ccc1N2 | 2 µM
77 | CC1=C(CCC(=O)O)c2cc3nc(cc4[nH]c(cc5[nH]c(cc1n2)c(C)c5C(C)O)c(C)c4C(C)O)C(C)=C3CCC(=O)O (stereo not given) | 1.7 µM
78 | Cc1cc(Br)ccc1N1C(=O)/C(=C/c2ccco2)C(=O)NC1=S | 4 µM
79 | CC(C)=CCC1=C(O)[C@@](O)(CC=C(C)C)C(=O)C(C(=O)CC(C)C)=C1O | 2.8 µM
80 | Cc1cc(O)c2c(c1O)C(=O)c1cccc(O)c1C2=O | > 100 µM (inactive)
81 | Cc1cc(Cl)ccc1OCC(=O)Nc1sc(C)c(C)c1C(N)=O | inactive
82 | C[C@H]1[C@H](O)c2c(c3c(c4c(-c5ccccc5)cc(=O)oc24)OC(C)(C)C=C3)O[C@@H]1C | inactive
83 | CCCc1cc(=O)oc2c3c(c4c(c12)OC(C)(C)C=C4)O[C@@H](C)[C@H](C)[C@@H]3F | inactive
84 | C=CCn1c(N)c(-c2nc3ccccc3[nH]2)sc1=S | 3.9 µM
85 | COc1cccc(-c2nc3cc(NC(=O)/C=C\c4ccccc4)ccc3o2)c1 | 9.2 µM
86 | CC1C2C=CC1C(c1c3ccc(=O)c(O)c-3oc3c(O)c(O)ccc13)C2C(=O)O (stereo not given) | 0.5 µM
87 | CC1=c2c(oc3cc(O)c(Nc4c(C)cc(O)cc4O)c(C)c23)=CC(=O)C1=Nc1c(C)cc(O)cc1O | 2 µM
88 | O=C1c2ccc(O)cc2C(=O)c2c1ccc(O)c2O | 2 µM
89 | Cc1ccc(-n2c(/C=C/c3ccc(O)c(O)c3)nc3ccccc3c2=O)cc1 | 3.8 µM
90 | C=CC1=C(C)C2=NC1=CC1=NC(=CC3=C(C)C4=C(O)C(C(=O)OC)C(=C5NC(=C2)C(C)C5CCC(=O)OC/C=C(\C)CCCC(C)CCCC(C)CCCC(C)C)C4=N3)C(CC)=C1C (stereo not given) | > 100 µM (inactive)
91 | Cc1ccc(C)n1-c1ccc(SCC(=O)O)cc1 | 2 µM
92 | NC(=O)c1c(NC(=O)CCc2ccccc2)sc2c1CCCCCC2 | 1.7 µM
93 | O=C1C=CC2=C3c4cc(O)c(O)cc4CC3(O)COC2=C1O (stereo not given) | 1.7 µM
94 | CC(C)OC(=O)c1cc(O)c(O)c(O)c1 | 8 µM
95 | Cc1ccc(NC(=O)c2c(NC(=O)C(F)(F)F)sc(-c3ccccc3)c2C)c(C)c1 | 2 µM
96 | Cc1sc(NC(=O)c2cccc([N+](=O)[O-])c2)c(C(N)=O)c1C | 1.8 µM
97 | N#Cc1c(N)nc(SCC(=O)c2ccc(O)c(O)c2)c(C#N)c1-c1ccc(O)cc1 | 0.43 µM
98 | C[N+](C)=c1ccc2nc3c(cc(Nc4ccccc4)c4ccccc43)oc-2c1 | inactive
99 | CC(C)=CCC/C(C)=C/Cc1cc(/C=C/c2cc(O)c(C/C=C(\C)CCC=C(C)C)c(O)c2)cc(O)c1O | 8.2 µM
100 | O=C1C=C(NCCc2cc(Br)c(O)c(Br)c2)C(=O)c2ncccc21 | 1.7 µM
